Assay results: PubChem BioAssay (NCI)
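Step 1: Grow cells in 96-well plates. Step 2: Expose to compound for 48 hours at 5 concentrations. Step 3: Interpolate endpoints linearly; if unreached, use highest concentration. GI50 = concentration required for 50% inhibition of growth. TGI denotes the concentration required for complete inhibition of growth.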

Key:
Experiment in all cases: NCI tumour cell line growth inhibition, 48 h
[1] = system: 786-0 renal
[2] = system: ACHN renal
[3] = system: HOP-92 NSCLC
[4] = system: K-562 leukemia
[5] = system: NCI-H226 lung
[6] = system: NCI-H23 lung
[7] = system: RPMI-8226 leukemia
[8] = system: RXF 393 renal
[9] = system: SF-268 CNS
[10] = system: U251 CNS

SMILES	GI50 [1]	TGI [1]	GI50 [2]	TGI [2]	GI50 [3]	TGI [3]	GI50 [4]	TGI [4]	GI50 [5]	TGI [5]	GI50 [6]	TGI [6]	GI50 [7]	TGI [7]	GI50 [8]	TGI [8]	GI50 [9]	TGI [9]	GI50 [10]	TGI [10]
Cc1cc(N(CCCl)CCCl)ccc1C=Nc1cccnc1	6.6 µM	> 69.1 µM	5.38 µM	> 100 µM	13.9 µM	68.2 µM	34.7 µM	> 100 µM	0.306 µM	1.79 µM	6.93 µM	> 100 µM	21.1 µM	> 100 µM	11.6 µM	42.5 µM	11.3 µM	> 100 µM	18.5 µM	> 100 µM
c1ccc2c(c1)O[As](O[As]1Oc3ccccc3O1)O2	3.66 µM	15.4 µM	6.47 µM	21.4 µM	0.86 µM	5.31 µM	1.66 µM	7.28 µM	3.61 µM	19.7 µM			1.07 µM	4.61 µM	1.64 µM	13 µM	2.47 µM	12.1 µM	1.35 µM	4.43 µM
COc1cc2c(cc1OC)C13CCN4CC5=CCOC(CC(=O)O)C(C5CC41)C3N2 (stereo not drawn)		> 100 µM		> 100 µM		> 100 µM		> 100 µM		> 100 µM		> 100 µM		> 100 µM				> 100 µM		> 100 µM
COc1ccc2c(c1)Oc1nc(N)c(C#N)c(N)c1C2Sc1ccc(SC)cc1 (stereo not drawn)	1.66 µM	3.06 µM	1.74 µM	3.11 µM	1.94 µM	3.56 µM	2.71 µM	10.3 µM	1.92 µM	3.58 µM			2.86 µM	6.43 µM	1.72 µM	3.11 µM	1.7 µM	3.29 µM	1.73 µM	3.19 µM
O=C1c2ccn(CCCCN3CCOCC3)c2C(=O)c2c1c(O)c1ccccc1c2O	6.34 µM	25.2 µM	10.8 µM	28.4 µM			2 µM	4.53 µM	5.32 µM	42.5 µM	11.4 µM	23.6 µM	3.53 µM	> 100 µM	2.2 µM	6.93 µM	9.44 µM	30.9 µM	10.9 µM	31.8 µM
CCCCOC1CC2(c3ccc(OC)cc3)C(=O)c3ccccc3N2O1 (stereo not drawn)		> 100 µM		> 10 µM				> 100 µM		> 10 µM				65.7 µM		50 µM		> 100 µM		> 10 µM
CCOC(C)OCC#CCCBr (stereo not drawn)		> 100 µM		> 100 µM				> 100 µM				> 100 µM		> 100 µM		> 100 µM		> 100 µM		> 100 µM
COC(=O)/C(=C/c1ccc(OC)cc1)C(C(=O)O)=C(C)C		> 100 µM				> 100 µM		> 100 µM		> 100 µM		> 100 µM		> 100 µM		> 100 µM		> 100 µM		> 100 µM
